In patent publication US20180045715A1, “STRUCTURE AND FUNCTION OF THE SALICYCLIC ACID BINDING SITES ON HUMAN HMGB1 AND METHODS OF USE THEREOF FOR THE RATIONAL DESIGN OF BOTH SALICYCLIC ACID DERIVATIVES AND OTHER AGENTS THAT ALTER ANIMAL AND PLANT HMGBS ACTIVITIES” (Boyce Thompson Institute for Plant Research, Inc., priority 2015, published 2018):

Tests used:
[1] = biological target: T1, mutant (R24A/K28A) HMGB1^RE (Homo sapiens, UniProt P09429, K28A/R24A); assay: Chemotaxis assay with mutant R24A/K28A HMGB1^RE; format: cell-based; conditions: NIH/3T3 fibroblasts
T1 construct: (i) full length: residues 2-215; made in house
T1 sequence (P09429 2-215 R24A/K28A): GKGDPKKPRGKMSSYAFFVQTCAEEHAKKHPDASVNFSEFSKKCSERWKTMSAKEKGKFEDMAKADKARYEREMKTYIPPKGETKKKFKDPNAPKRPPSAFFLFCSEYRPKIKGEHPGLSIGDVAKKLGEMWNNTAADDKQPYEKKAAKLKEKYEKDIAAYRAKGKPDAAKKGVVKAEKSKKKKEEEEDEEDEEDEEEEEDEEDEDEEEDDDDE
Experimental: Cell migration was assayed using Boyden chambers (Venereau et al., 2012). The downside of PVP-free polycarbonate filters (8 μm pores; Millipore) was coated with 50 μg/ml fibronectin (Sigma). Serum-free DMEM (negative control), DMEM containing 0.1 nM fMLP (positive control; Sigma), or DMEM containing 1 nM HMGB1^RE or HMGB1^SS were placed in the lower chamber, together with different concentrations of SA (Sigma). The mouse 3T3 fibroblast cells were cultured in DMEM media supplemented with 10% CS until 90% confluence, washed twice with PBS to eliminate any floating cells, and harvested with trypsin. 50,000 cells in 200 μL were added to the upper chamber, and cells were left to migrate for 3 h at 37° C. Non-migrating cells were removed with a cotton swab, and migrated cells were fixed with ethanol and stained with Giemsa.
(§1) An alternative explanation is that SA, at low concentrations, affects another factor in vivo, which results indirectly in suppression of HMGB1^RE-induced chemotaxis. […] Therefore, these residues were mutated to Ala to form the double mutant Arg24Ala/Lys28Ala (R24A/K28A).

R50A/K54A mutant AtHMGB3 = biological target: T2, R50A/K54A mutant AtHMGB3 (Arabidopsis thaliana, UniProt P93047, K54A/R50A); assay: MAPK activation assay with mutant R50A/K54A AtHMGB3; conditions: in vivo
T2 construct: providing a full length Arabidopsis thaliana HMGB1 or HMGB3 (AtHMGB1 or AtHMGB3) protein; made in house
T2 sequence (P93047 whole entry R50A/K54A): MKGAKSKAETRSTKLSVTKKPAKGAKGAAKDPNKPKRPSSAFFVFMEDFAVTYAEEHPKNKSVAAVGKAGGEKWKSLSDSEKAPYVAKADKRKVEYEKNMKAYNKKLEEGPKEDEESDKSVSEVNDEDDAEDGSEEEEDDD
Experimental: To detect the phosphorylation of Arabidopsis MAPKs (MPK3/4/6), 3 to 4 week-old soil grown Arabidopsis leaves were infiltrated with 1 μM AtHMGB3 or 1 μM Pep1 peptide ([…]; synthesized by GenScript USA Inc.). […] Proteins were extracted using lacus buffer (25 mM Tris-HCl, pH 7.5, 15 mM MgCl2, 15 mM EGTA, 75 mM NaCl, 1 mM DTT, 0.1% NP-40, 5 mM p-nitrophenylphosphate, 60 mM β-glycerophosphate, 0.1 mM […], 1 mM NaF, 1 mM PMSF, 5 μg/ml leupeptin, 5 μg/ml aprotinin), and then centrifuged at 15,000 g for 10 min at 4 ° C. to remove cell debris.
Thus, these residues (R50 and K54) were mutated to Ala, and the resulting mutant AtHMGB3 tested for its ability to activate MPK3/6 and induce callose deposition in the absence or presence of SA. The R50A/K54A mutant AtHMGB3 retained its ability to activate MPK3/6 and induce callose deposition, but inhibition of these activities by SA was lost (FIG. 7H,I and FIG. 8).

[2] = biological target: T3, full-length (FL) R24A/K28A HMGB1 (Homo sapiens, UniProt P09429, K28A/R24A); assay: 15N-1H HSQC NMR binding to R24A/K28A HMGB1; conditions: ~0.1 mM protein; 15 mM SA, 3 mM ac3AESA or 3 mM amorfrutin B1
T3 construct: (i) full length: residues 2-215; made in house
T3 sequence (P09429 2-215 R24A/K28A): T1 sequence (P09429 2-215 R24A/K28A)
Experimental: […] Samples were analyzed with and without SA or other candidate inhibitors at 25° C. Chemical shift perturbation studies were carried out using either a Bruker Avance 800 MHz Avance NMR system with 4-mm NMR tubes, or using a Bruker Avance 600 MHz NMR spectrometer equipped with a 1.7 mm micro cryoprobe. 1024 or 2048 complex points were acquired for each of 80 to 200 increments in the ^15N dimension with a recycle delay of 1 s. Each spectrum was typically acquired for 2-8 hrs. Chemical shift assignments were determined using a uniformly ^13C,^15N-enriched HMGB1-ΔC construct at 25° C. via traditional triple-resonance NMR experiments (Biamonti et al., 1994; Moseley et al., 2001) recorded on a Bruker 800 MHz NMR spectrometer equipped with a 5 mm cryoprobe. Disulfide oxidation studies were carried out using the ^15N-^1H SOFAST-HMQC NMR experiment (Schanda & Brutscher, 2005; Schanda et al., 2005; Zandarashvili et al., 2013).
as §1

AtHMGB3 [3] = biological target: T4, AtHMGB3 (Arabidopsis thaliana, UniProt P93047); assay: Photoaffinity labeling of AtHMGB3 with 4AzSA, competition by SA; conditions: 50 μM 4AzSA, increasing concentrations of SA
T4 sequence (P93047 1-141): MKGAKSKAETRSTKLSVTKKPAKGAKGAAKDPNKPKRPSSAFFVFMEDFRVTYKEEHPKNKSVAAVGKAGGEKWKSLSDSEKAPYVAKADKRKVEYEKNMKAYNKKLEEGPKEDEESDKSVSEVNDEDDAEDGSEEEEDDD

AtHMGB3 [4] = biological target: T4, AtHMGB3; assay: Callose staining: AtHMGB3-induced callose deposition in Arabidopsis leaves; format: in vivo; set-up: providing a full length Arabidopsis thaliana HMGB1 or HMGB3 (AtHMGB1 or AtHMGB3) protein; 6x His; made in house; host or cells: Escherichia coli BL21; conditions: 100 nM AtHMGB3, 15 h
Experimental: Arabidopsis leaves were collected 15 h after infiltration with 100 nM AtHMGB3 or 100 nM Pep1, and then immediately immersed in alcoholic lactophenol (phenol:glycerol:lactic acid:water:ethanol=1:1:1:1:8) to destain the chlorophyll. To remove the background fluorescence, destained leaves were treated with toluidine blue O solution (0.05% toluidine blue O, 0.1 M sodium acetate, pH 4.4) for 30 min, and then rinsed twice with 150 mM K2HPO4 (pH 9.5). Callose was stained with aniline blue solution (0.02% aniline blue, 150 mM K2HPO4, pH 9.5) for 30 min in the absence of light. The aniline blue-stained leaves were mounted with 25% glycerol and analyzed using a Leica DM5500 epifluorescence microscope. The number of callose loci was quantified using an ImageJ (NIH).

COX = conditions: cited from earlier work

O=C(O)c1ccccc1O [SA, salicylic acid]
inhibition of R24A/K28A HMGB1^RE's chemo-attractant activity [1]: not inhibited
inhibition by SA of MPK3/6 activation by R50A/K54A AtHMGB3 (R50A/K54A mutant AtHMGB3): lost
binding to R24A/K28A HMGB1 (CSPs in HSQC) [2]: does not bind
inhibition of crosslinking of 4AzSA to AtHMGB3 (AtHMGB3 [3]): effectively inhibited
effect on AtHMGB3-induced callose deposition (AtHMGB3 [4]): completely suppressed
IC50, inhibition of COX activity in vitro (COX; literature (Mitchell et al., 1997; Vane, 1971)): > 100 µg/mL
IC50 (COX; literature, conversion in parentheses, read-out: IC50, inhibition of COX activity in vitro): > 500 µM
